Laboratory results as given in the supplement of paper PMC10307832.

How the values were obtained:
Assay in all cases: relative viability (nuclei count vs DMSO), 5 days (fraction); higher = more cells survive
Salubrinal + Palbociclib = compound: O=C(/C=C/c1ccccc1)NC(NC(=S)Nc1cccc2cccnc12)C(Cl)(Cl)Cl [Salubrinal] + CC(=O)c1c(C)c2cnc(Nc3ccc(N4CCNCC4)cn3)nc2n(C2CCCC2)c1=O [Palbociclib] (partner 0.5 µM)
In short: (§1)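 A single step with final 0.05% Triton X-100, 1% formaldehyde and 1 ug/ml Hoechst fixed the cells and stained nuclei 5 days after treatment. Lung cancer cell lines in 1536-well plates had been treated by pin tool the day after seeding with one drug alone or a fixed anchor-drug dose plus five library-drug doses (not always all listed) in √10 steps, and nuclei were counted on 4× images. Relative viability is the ratio of nuclei in treated wells to nuclei in vehicle wells, taken as the median of duplicate plates.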

Salubrinal + Olaparib = compound: O=C(/C=C/c1ccccc1)NC(NC(=S)Nc1cccc2cccnc12)C(Cl)(Cl)Cl [Salubrinal] + O=C(c1cc(Cc2n[nH]c(=O)c3ccccc23)ccc1F)N1CCN(C(=O)C2CC2)CC1 [Olaparib] (partner 8 µM)
In short: as §1

Salubrinal + Lapatinib = compound: O=C(/C=C/c1ccccc1)NC(NC(=S)Nc1cccc2cccnc12)C(Cl)(Cl)Cl [Salubrinal] + CS(=O)(=O)CCNCc1ccc(-c2ccc3ncnc(Nc4ccc(OCc5cccc(F)c5)c(Cl)c4)c3c2)o1 [Lapatinib] (partner 2 µM)
In short: as §1

[1] = compound: Cc1ccc2nc(NCCN)c3ncc(C)n3c2c1 + Cc1cc(Nc2cc(N3CCN(C)CC3)nc(Sc3ccc(NC(=O)C4CC4)cc3)n2)n[nH]1 [Tozasertib] (partner 0.1 µM)
In short: as §1

Cell Line: UMC-11
- relative viability (Salubrinal + Palbociclib; first compound 0.08 µM): 0.304
- relative viability (Salubrinal + Palbociclib; first compound 0.253 µM): 0.344
- relative viability (Salubrinal + Palbociclib; first compound 0.8 µM): 0.349
- relative viability (Salubrinal + Palbociclib; first compound 2.53 µM): 0.313
- relative viability (Salubrinal + Palbociclib; first compound 8 µM): 0.299
- relative viability (Salubrinal + Olaparib; first compound 0.08 µM): 0.355
- relative viability (Salubrinal + Olaparib; first compound 0.253 µM): 0.368
- relative viability (Salubrinal + Olaparib; first compound 0.8 µM): 0.386
- relative viability (Salubrinal + Olaparib; first compound 2.53 µM): 0.337
- relative viability (Salubrinal + Olaparib; first compound 8 µM): 0.393
- relative viability (Salubrinal + Lapatinib; first compound 0.08 µM): 0.931
- relative viability (Salubrinal + Lapatinib; first compound 0.253 µM): 0.918
- relative viability (Salubrinal + Lapatinib; first compound 0.8 µM): 1.48
- relative viability (Salubrinal + Lapatinib; first compound 2.53 µM): 1.11
- relative viability (Salubrinal + Lapatinib; first compound 8 µM): 1.16
- relative viability ([1]; first compound 0.04 µM): 0.211
- relative viability ([1]; first compound 0.1265 µM): 0.233
- relative viability ([1]; first compound 0.4 µM): 0.209
- relative viability ([1]; first compound 1.265 µM): 0.205
- relative viability ([1]; first compound 4 µM): 0.194
